The source of these data is US5021435A, “Certain pyridyl-thiazolidin-4-one having anti-ulcer activity” (Sumitomo Pharmaceuticals Company, Limited, priority 1988, dated 1991).

Broadly, the IC50 is the point on the concentration scale where inhibition reaches its midpoint.

≈ marks a conversion by molar mass, not a printed value. Read-outs that look alike come from different tables or passages of the source.

Assay [1] has as its system water-immersion and restraint stress induced gastric ulcer. Kind of assay: Antiulcer test: water-immersion and restraint stress induced gastric ulcer model in rats. It is filed as in vivo, Sprague-Dawley strain male rats. To be noted: for inhibition of stress-induced ulcer (in words): discussion statement; for Test on anti-ulceration (ulcer caused by stress), Test (1): 100 mg/kg P.O.; for inhibition in vivo at 50 mg/kg / inhibition in vivo at 100 mg/kg / inhibition in vivo at 30 mg/kg: Rattus norvegicus, po, 17 h, read-out: Effect (inhibitory percentage of ulcer formation, judgement); for inhibition in vivo at 100 mg/kg: 100 mg/kg oral. On the procedure: Sprague-Dawley strain male rats (body weight: 200-250 g) fasted for 24 hours (with free access of water) were used for the test. (1) Antiulcer test Anticular effect of the compound was examined by means of water-immersion and restraint stress induced gastric ulcer model in rats. The ulcer experiment was performed in accordance with the method of Takagi and Okabe referred to hereinafter. Rats were immobilized in a restraint cage. The animals were then immersed vertically to the level of the xiphoid process in water bath (23° C.) for 17 hr and killed by deep ether anesthesia. The stomach of each rat was removed and inflated by injecting 10 ml of 1% formalin to fix the inner and outer layer of gastric wall. Subsequently, the stomach was incised along the greater curveture and the length of ulcers in glandular portion was measured. The sum of the length (mm) of each ulcer was used as an ulcer index. Test compound was suspended in 0.5% methylcellulose solution and was orally administered at a volume of 5 ml/kg to the rat 30 minutes prior to stress loading. To the control group was administered vehicle alone at the same volume. Inhibitory percentage of ulcer formation of the compound was calculated from the following formula. [formula]

Assay [2] concerns PAF-induced ulcer. The experiment in a line: Test on PAF-induced ulcer. It is filed as in vivo, Sprague-Dawley strain male rats. To be noted: for Test on inhibition of PAF-induced ulcer, Test (3): rat, 100 mg/kg P.O. 30 minutes before PAF, effective = statistically significant vs control. On the procedure: (§1) Sprague-Dawley strain male rats (body weight: 200-250 g) fasted for 24 hours (with free access of water) were used for the test.
(3) Test on PAF-induced ulcer
Inhibitory effect of the compound on PAF-induced ulcer was examined. PAF-induced ulcer in rat was caused by intravenous administration of 10 μg/kg of PAF. One hour after PAF administration, rat was killed under deep ether anesthesia and stomach was removed. The stomach was inflated and fixed by injecting 10 ml of 1% formalin solution and then cut open along greater curvature. Areas (mm^2) of the ulcerated portions were measured and sum of them was taken as ulcer-index. Test compound was suspended in a 0.5% methylcellulose solution and orally administered at a volume of 5 ml/kg 30 minutes before the administration of PAF. Vehicle alone was administered to control rat at the same volume with test group. With reference to the effect of the compound to inhibit ulceration, results of treated group and those of control group were compared and those which have a statistical significance was judged to be effective.

Assay [3] concerns PAF-induced platelet aggregation. Kind of assay: Anti-PAF test in vitro (inhibitory action on PAF-induced platelet aggregation, PRP). The format is cell-based, rabbit (male Japanese white rabbits). The conditions noted are these: Oryctolagus cuniculus, rabbit PRP. The method, then:
The inhibition of PAF-induced platelet aggregation was examined by using a platelet-rich plasma (PRP) of rabbit according to the method of Mustard et al. [J. F. Mustard et al., J. Lab. Blin. Med., 64, 548 (1964)], which is an improved method of Born [G.V.R. Born, J. Physiol., London, 162, 67 (1962) ]. That is, 80-100 ml of blood per animal was collected from carotoid arteries of conscious male Japanese white rabbits into a polyethylene vessel containing 1/10 the volume of a 3.8% sodium citrate solution. A portion (about 3 ml) of the collected blood was centrifuged at a high speed (11,000 rpm) for 60 seconds to give a platelet-poor plasma (PPP) as supernatant. The remainder of the blood was centrifuged at a low speed (1000 rpm) for 10 minutes to give a platelet-rich plasma (PRP) as supernatant.
The degree of platelet aggregation was determined by nephelometry with an aggregometer (Hematracer, Niko Biosciene Co.) while stirring the PRP at 1000 rpm at 37° C. The degree of platelet aggregation was expressed in terms of the light transmittance (%), the value of PRP being taken as 0% and the value of […]. A portion (0.2 ml) of the PRP was placed into a glass cuvette containing a silicone-coated stirring iron bar, and 2 μl of dimethylsulfoxide was added. After 2 minutes, PAF dissolved in physiological saline containing 0.25% BSA was added to give a final PAF concentration of […], and the maximum aggregation was determined. To measure the inhibitory activity of test compounds on the platelet aggregation induced by PAF, 2 μl of a dimethylsulfoxide solution of each test compound was added in place of dimethylsulfoxide. The inhibitory percentage by the test compound of PAF-induced platelet aggregation was calculated according to the following equation and the value of IC50 was determined. [formula]

For assay [4], the system named is centrally stimulated gastric acid secretion (baclofen). Kind of assay: Central acting inhibitory effect of gastric acid secretion: baclofen-stimulated (central). It is filed as in vivo, Sprague-Dawley strain male rats. The conditions noted are these: rat, 30 mg/kg into duodenum 2 hours before stimulant; baclofen 2 mg/kg s.c. On the procedure: as §1
(§2) (2) Test on central acting inhibitory effect of gastric acid secretion
(§3) Whether the antisecretory effect of the compound is based on central action or not was judged according to mode of antisecretory action of the compound to centrally stimulated gastric acid secretion and peripherally stimulated gastric acid secretion. […]
(§4) We determined the site of action (central or peripheral) of the compound by the result from above examination. […]
(§5) Gastric acid was collected every 20 min. by flushing the gastric lumen with 5 ml saline. The acid content of each sample was determined by titration of 0.02 N-NaOH.
(§6) Peripheral stimulation of gastric acid secretion was carried out by subcutaneous administration of 10 mg/kg of histamine or 1 mg/kg of bethanechol. […] Inhibitory percentage of acid secretion of the compound was calculated from the following formula. […]

Assay [5] deals with peripherally stimulated gastric acid secretion (histamine). The experiment in a line: Gastric acid secretion stimulated peripherally by histamine. The format is in vivo, Sprague-Dawley strain male rats. To be noted: rat, 30 mg/kg into duodenum 2 hours before stimulant; histamine 10 mg/kg s.c. The method, then: as §1, §2, §3, §4, §5, §6
In assay [6] the test system is peripherally stimulated gastric acid secretion (bethanechol). The experiment in a line: Gastric acid secretion stimulated peripherally by bethanechol. The format is in vivo, Sprague-Dawley strain male rats. The conditions noted are these: rat, 30 mg/kg into duodenum 2 hours before stimulant; bethanechol 1 mg/kg s.c. On the procedure: as §1, §2, §3, §4, §5, §6
Assay [7] concerns PAF-induced ulcer. To be noted: cited from earlier work.
Setting [8] is: rat, 50 mg/kg oral, 30 minutes prior to stress.
The mark [9] stands for this setting: rat, 30 minutes prior to stress.

`COc1cc([C@H]2CC[C@H](c3cc(OC)c(OC)c(OC)c3)O2)cc(OC)c1OC` (relative stereo) [Example L-652731, trans2,5-bis(3,4,5-trimethoxyphenyl)tetrahydrofuran, reference compound]: the “inhibition of stress-induced ulcer (in words)” value in assay [1] was “cannot be inhibited”. The “Test on anti-ulceration (ulcer caused by stress), Test (1)” value (shortened to “Test on anti-ulceration”) in assay [1] (rat) is “Ineffective”. In addition, in assay [2] (discussion statement), the “inhibition of PAF-induced ulcer (in words)” value was “remarkably inhibited”. For the same compound, in assay [2], the “Test on inhibition of PAF-induced ulcer, Test (3)” value (shortened to “Test on inhibition … (3)”) is reported as “Effective”. For the same compound, the IC50 in assay [3] was 0.2 mg/L (≈ 0.494 µM).

As to `CN1C(=O)C(c2ccc(F)cc2)SC1c1cccnc1` (stereo not drawn) [Example 42], the inhibition in vivo at 50 mg/kg in assay [1] (setting [8]) was > 80%. The “Test on anti-ulceration” value in assay [1] (rat) is given as “Effective”. For the same compound, the “Test on inhibition … (3)” value in assay [2] was “Effective”. In assay [3], this compound registered an IC50 of 4 mg/L (≈ 13.9 µM).

As to `CN1C(=O)[C@H](c2ccc(F)cc2)S[C@@H]1c1cccnc1` (relative stereo) [Example 221], the inhibition in vivo at 100 mg/kg in assay [1] (setting [9]) is > 80%.

Turning to `CN1C(=O)[C@H](c2ccc(C(F)(F)F)cc2)S[C@@H]1c1cccnc1` (relative stereo) [Example 246], the inhibition in vivo at 100 mg/kg in assay [1] (setting [9]) was in the range of 60 to 80%.

With `CN1C(=O)C(c2ccccc2)SC1c1cccnc1` (stereo not drawn) [Example 52], the inhibition in vivo at 50 mg/kg in assay [1] (setting [8]) lay within 40 to 60%.

Regarding `CN1C(=O)[C@@H](c2ccc(Cl)cc2)S[C@H]1c1cccnc1` (single isomer, unassigned) [Example 34, (-)-cis-5-(4-chlorophenyl)-3-methyl-2-(3-pyridyl)thiazolidin-4-one], the inhibition in vivo at 100 mg/kg in assay [1] (setting [9]) was 60 to 80%.

On to `CN1C(=O)C(c2ccccc2F)SC1c1cccnc1` (stereo not drawn) [Example 198], for which the inhibition in vivo at 100 mg/kg in assay [1] (setting [9]) is > 80%.

Take `CN1C(=O)C(c2ccccc2F)[S+]([O-])C1c1cccnc1` (stereo not drawn) [Example 199]: the inhibition in vivo at 100 mg/kg in assay [1] (setting [9]) was > 80%.

For `CN1C(=O)C(c2ccc(Cl)cc2)SC1c1cccnc1` (stereo not drawn) [Example 1, 5-(4-chlorophenyl)-3-methyl-2-(3-pyridyl)thiazolidin-4-one], in assay [1] (setting [8]), the inhibition in vivo at 50 mg/kg was 60 to 80%. For the same compound, the “Test on anti-ulceration” value in assay [1] (rat) was “Effective”. Further, the “Test on inhibition … (3)” value in assay [2] is “Effective”. In assay [3], this compound yielded a concentration for half-maximal inhibition (IC50) of 5.8 mg/L (≈ 19 µM).

Turning to `CN1C(=O)C(c2ccc(Cl)cc2)SC1c1cccnc1` (single isomer, unassigned) [2 (Isomer II), 5-(4-Chlorophenyl)-3-methyl-2-(3-pyridyl)-thiazolidin-4-one], in assay [1] (setting [8]), the inhibition in vivo at 50 mg/kg is > 80%. Also, in assay [4], the “Inhibitory percentage of acid secretion (judgement), stimulant baclofen” value is “+++ (Not less than 80%.)”. Further, in assay [5], the “Inhibitory percentage of acid secretion (judgement), stimulant histamine” value is reported as “- (Less than 40%.)”. The “Inhibitory percentage of acid secretion (judgement), stimulant bethanechol” value in assay [6] is on record as “- (Less than 40%.)”.

For `CN1C(=O)[C@@H](c2ccc(Cl)cc2)S[C@H]1c1cccnc1` (single isomer, unassigned) [Example 33, (+)-cis-5-(4-chlorophenyl)-3-methyl-2-(3-pyridyl)thiazolidin-4-one], the inhibition in vivo at 30 mg/kg in assay [1] (rat, 30 mg/kg oral, 30 minutes prior to stress) was > 80%.

On to `CN1C(=O)C(c2ccc(Cl)cc2)[S+]([O-])C1c1cccnc1` (single isomer, unassigned) [Example 30, 5-(4-chlorophenyl)-3-methyl-2-(3-pyridyl)-1-oxo-thiazolidin-4-one], for which, in assay [1] (setting [8]), the inhibition in vivo at 50 mg/kg fell in the range of 40 to 60%.

Take `CN/C(=N/CCSCc1nc[nH]c1C)NC#N` [Cimetidine, reference compound]: in assay [1], the inhibition in vivo at 30 mg/kg lay in the range of 60 to 80% and the “inhibition of stress-induced ulcer (in words)” value was “can be inhibited”. The “Test on anti-ulceration” value in assay [1] (rat) was “Effective”. Also, the “inhibition of PAF-induced ulcer (in words)” value in assay [7] (discussion statement, Table 5 cites Nature 319, 54-56 (1986)) is reported as “cannot be inhibited”. Besides, in assay [7] (table head 100 mg/kg P.O., (*) Nature 319, 54-56 (1986)), the “Test on inhibition of PAF-induced ulcer” value is recorded as “Ineffective”.

With `CN1C(=O)C(c2ccc(Cl)cc2)SC1c1ccncc1` (stereo not drawn) [Example 46], in assay [1] (setting [8]), the inhibition in vivo at 50 mg/kg is 60 to 80%.

With `COc1ccc(C2SC(c3cccnc3)N(C)C2=O)cc1` (stereo not drawn) [Example 48], in assay [1] (setting [8]), the inhibition in vivo at 50 mg/kg lay in the range of 40 to 60%.

For `CN1C(=O)C(c2ccc(Cl)cc2)[S+]([O-])C1c1cccnc1` (single isomer, unassigned) [Example 31, 5-(4-chlorophenyl)-3-methyl-2-(3-pyridyl)-1-oxo-thiazolidin-4-one], in assay [1] (rat, 50 mg/kg oral, 30 minutes prior to stress, 50 mg/kg), the “Effect (inhibitory percentage of ulcer formation, judgement)” value is “++ (Not less than 60% and less than 80%.)”.

In the case of `COc1ccc(C2NC(=O)C(C)S2)cc1OC` (stereo not drawn) [Mezolidon, 2-(3,4-dimethoxyphenyl)-5-methylthiazolidin-4-one, reference compound], the inhibition in vivo at 100 mg/kg in assay [1] (setting [9]) is < 40%. Also, the “effect by the test method employed in the present invention” value in assay [1] (statement in words) is recorded as “nearly ineffective”.

Take `O=C1NC(c2cccnc2)SC1c1ccc(Cl)cc1` (stereo not drawn) [Example 178]: the inhibition in vivo at 100 mg/kg in assay [1] (setting [9]) fell in the range of 40 to 60%.
